From patent US3974140A, “Ureidoacetamido-penicillins” (Bayer Aktiengesellschaft, priority 1970, dated 1976)
Where “and” joins values, the source holds several entries; their conditions need not be identical. Equal values may be shown once.

Legend:
Staph. aureus 1777 E = test: MIC, liquid medium test tube series dilution test; type: cell-based, Staphylococcus aureus; details: 24 hours, 37°C
Summary of the method: (§1)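 Read-out: visual turbidity after 24 h at 37°C. The MIC, in units/ml, corresponds to the non-turbid tube in a liquid-medium test tube dilution series prepared in complete nutrient medium.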

Staph. aureus 133 [1] = test: MIC, liquid medium test tube series dilution test; type: cell-based, Staphylococcus aureus; details: Staph. aureus 133, 24 hours, 37°C
Summary of the method: as §1

Staph. aureus 133 [2] = test: Surviving mice after intraperitoneal infection and subcutaneous therapy; type: in vivo, white mice, CF1 strain; details: 2 × 200 units/mouse s.c.
Experimental: The experiments on animals (see Table 3) were carried out with white mice of the CF1 strain. The infection took place intraperitoneally with the particular bacterium indicated.

Psdm. aerug. Walter = test: MIC, liquid medium test tube series dilution test; type: cell-based, Pseudomonas aerug.; details: 24 hours, 37°C
Summary of the method: as §1

Psdm. aerug. Bonn = test: MIC, liquid medium test tube series dilution test; type: cell-based, Pseudomonas aerug.; details: 24 hours, 37°C
Summary of the method: as §1

E. coli C 165 = test: MIC, liquid medium test tube series dilution test; type: cell-based; details: E. coli C 165, 24 hours, 37°C
Summary of the method: as §1

E. coli 14 = test: MIC, liquid medium test tube series dilution test; type: cell-based; details: E. coli 14, 24 hours, 37°C
Summary of the method: as §1

E. coli 183/58 = test: MIC, liquid medium test tube series dilution test; type: cell-based; details: E. coli 183/58, 24 hours, 37°C
Summary of the method: as §1

E. coli A 261 = test: MIC, liquid medium test tube series dilution test; type: cell-based; details: E. coli A 261, 24 hours, 37°C
Summary of the method: as §1

[3] = test system: Streptoc. faec. ATCC 9790; test: MIC, liquid medium test tube series dilution test; type: cell-based; details: Strep. faec. (Enterococcus) ATCC 9790, 24 hours, 37°C
Summary of the method: as §1

Klebsiella 63 = test: MIC, liquid medium test tube series dilution test; type: cell-based; details: Klebsiella 63, 24 hours, 37°C
Summary of the method: as §1

Proteus vulg. 1017 = test: MIC, liquid medium test tube series dilution test; type: cell-based, Proteus vulgaris; details: Proteus vulg. 1017, 24 hours, 37°C
Summary of the method: as §1

Proteus vulg. 3400 = test: MIC, liquid medium test tube series dilution test; type: cell-based, Proteus vulgaris; details: Proteus vulg. 3400, 24 hours, 37°C
Summary of the method: as §1

[4] = Serum level after subcutaneous administration, measured from microbiological activity against Proteus vulgaris 1017; type: in vivo, white mice
From the text: Serum level after subcutaneous ("s.c.") administration to white mice, in units/ml of serum, measured from the microbiological activity against Proteus vulgaris 1017 (ampicillin-resistant).

Klebsiella K 10 = test: MIC, liquid medium test tube series dilution test; type: cell-based; details: Klebsiella K 10, 24 hours, 37°C
Summary of the method: as §1

[5] = Acute toxicity (LD50), intravenous injection into the vein of the tail; type: in vivo; details: i.v. into tail vein, white mice
From the text: Acute toxicity (LD50) in white mice after
intravenous injection into the vein of the […]

| MIC (Staph. aureus 1777 E) [units/ml] | MIC (Staph. aureus 133 [1]) | MIC (Psdm. aerug. Walter) | MIC (Psdm. aerug. Bonn) | MIC (E. coli C 165) [units/ml] | MIC (E. coli 14) | MIC (E. coli 183/58) | MIC (E. coli A 261) [units/ml] | MIC [3] [units/ml] | MIC (Klebsiella 63) [units/ml] | MIC (Proteus vulg. 1017) [units/ml] | MIC (Proteus vulg. 3400) [units/ml] | MIC (Klebsiella K 10) [units/ml] | Structure (SMILES) | other results |
| --- | --- | --- | --- | --- | --- | --- | --- | --- | --- | --- | --- | --- | --- | --- |
| 50 | 1.56 units/ml | 50 units/ml | 25 units/ml | 25 | 3.12 units/ml | 25 units/ml | > 400 | 100 | 100 | 25 | 100 | 100 | CN(C(=O)CCCl)C(=O)N[C@@H](C(=O)N[C@@H]1C(=O)N2[C@@H]1SC(C)(C)[C@@H]2C(=O)O)c1ccccc1 [Example 64, Sodium D(-)-α-(3-β -chloropropionyl-3-methyl-ureido)-benzylpenicillin] | Serum level ([4]; 50.000 units s.c., 10 mins.): 50 units/ml of serum; Serum level ([4]; 50.000 units s.c., 20 mins.): 10 units/ml of serum; Serum level ([4]; 150.000 units s.c., 15 mins.): 42 units/ml of serum; Serum level ([4]; 150.000 units s.c., 30 mins.): 26 units/ml of serum; Serum level ([4]; 150.000 units s.c., 60 mins.): < 10 units/ml of serum |
|  |  |  |  |  |  |  |  |  |  |  |  |  | Cc1onc(-c2c(Cl)cccc2Cl)c1C(=O)N[C@@H]1C(=O)N2[C@@H]1SC(C)(C)[C@@H]2C(=O)O [Dicycloxacillin, reference compound] | Acute toxicity (LD50) [5]: 900 mg/kg |
| 100 | < 0.8 units/ml | 200 units/ml | 25 units/ml | 50 | 12.5 units/ml | 100 units/ml | > 400 | 50 | 100 | 50 | 50 | 200 | CC1(C)S[C@@H]2[C@H](NC(=O)[C@H](NC(=O)N3CCNC3=S)c3ccccc3)C(=O)N2[C@H]1C(=O)O [Example 147 A] | MIC (Proteus vulg. 3400; listed as 147 A): 200 units/ml |
| 400 | < 0.78 units/ml | 25 units/ml | 12 units/ml and 12.5 units/ml | 6.25 | 1.56 units/ml | 3.12 units/ml | 400 | 100 | 100 | 6.25 | 6.25 | 100 | CN(C(=O)N[C@@H](C(=O)N[C@@H]1C(=O)N2[C@@H]1SC(C)(C)[C@@H]2C(=O)O)c1ccccc1)C(=O)C1CCCCC1 [Example 62] |  |
| 100 | 1.56 units/ml | 200 units/ml | 100 units/ml | 50 | 12.5 units/ml | 50 units/ml | > 400 | 200 | 200 | 100 | 100 | 100 | CCN(CC)C(=O)N(C)C(=O)N[C@@H](C(=O)N[C@@H]1C(=O)N2[C@@H]1SC(C)(C)[C@@H]2C(=O)O)c1ccccc1 [Example 126, Sodium D(-)-α-(3-diethylaminocarbonyl-3-methyl-ureido)-benzylpenicillin] |  |
| 12.5 | < 0.78 units/ml | 12.5 units/ml | 6.25 units/ml | 1.56 | 0.78 units/ml | < 0.78 units/ml | 50 | 50 | 6.25 | 1.56 | 6.25 | 6.25 | CN(C(=O)N[C@@H](C(=O)N[C@@H]1C(=O)N2[C@@H]1SC(C)(C)[C@@H]2C(=O)O)c1ccccc1)C(=O)c1ccccc1Br [Example 128, Sodium D(-)-α-(3-[2-bromobenzoyl]-3-methyl-ureido)-benzyl penicillin] |  |
| 6.25 | < 0.78 units/ml | 12.5 units/ml | 6.25 units/ml | 1.56 | 0.78 units/ml | 1.56 units/ml | 50 | 50 | 6.25 | 3.12 | 6.25 | 6.25 | Cc1ccccc1C(=O)N(C)C(=O)N[C@@H](C(=O)N[C@@H]1C(=O)N2[C@@H]1SC(C)(C)[C@@H]2C(=O)O)c1ccccc1 [Example 129, Sodium D(-)-α-(3-[2-methylbenzoyl]-3-methyl-ureido)-benzylpenicillin] |  |
| 25 | < 0.78 units/ml | 100 units/ml | 50 units/ml | 12.5 | 3.12 units/ml | 25 units/ml | > 400 | 200 | 50 | 50 | 50 | 50 | CN(C(=O)N[C@@H](C(=O)N[C@@H]1C(=O)N2[C@@H]1SC(C)(C)[C@@H]2C(=O)O)c1ccccc1)C(=O)N1CCCC1 [Example 124, Sodium D(-)-α-(3-[1-pyrrolidyl]-carbonyl-3-methyl-ureido)-benzylpenicillin] |  |
| 12.5 | < 0.78 units/ml | 25 units/ml | 12.5 units/ml | 3.12 | 0.78 units/ml | 1.56 units/ml | 50 | 25 | 12.5 | 3.12 | 6.25 | 12.5 | CN(C(=O)N[C@@H](C(=O)N[C@@H]1C(=O)N2[C@@H]1SC(C)(C)[C@@H]2C(=O)O)c1ccccc1)C(=O)c1ccc(Cl)cc1[N+](=O)[O-] [Example 127, Sodium D(-)-α-(3-[2-nitro-4-chlorobenzoyl]-3-methyl-ureido)-benzylpenicillin] |  |
| 200 | < 0,78 units/ml | 12,5 units/ml | 12,5 units/ml | 25 | 3,12 units/ml | 6,25 units/ml | > 400 | 50 | 50 | 50 | 100 | 100 | CC1(C)S[C@@H]2[C@H](NC(=O)C(NC(=O)N3CCNC3=O)c3ccc(Cl)cc3)C(=O)N2[C@H]1C(=O)O (stereo partly drawn) [Example 47, Sodium α-[(imidazolidin-2-on-1-yl)-carbonylamino]-p-chloro benzylpenicillin] |  |
| 200 | < 0.78 units/ml | 25 units/ml | 12.5 units/ml | 6.25 | 3.12 units/ml | 6.25 units/ml | > 400 | 50 | 50 | 25 | 25 | 100 | CCOC(=O)N(C)C(=O)N[C@@H](C(=O)N[C@@H]1C(=O)N2[C@@H]1SC(C)(C)[C@@H]2C(=O)O)c1ccccc1 [Example 61, Sodium D(-)-α-(3-ethoxycarbonyl-3-methyl-ureido)-benzylpenicillin] |  |

| Structure (SMILES) | MIC (Staph. aureus 1777 E) [units/ml] | MIC (Staph. aureus 133 [1]) | MIC (Psdm. aerug. Walter) | MIC (Psdm. aerug. Bonn) | MIC (E. coli C 165) [units/ml] | MIC (E. coli 14) | MIC (E. coli 183/58) | MIC (E. coli A 261) [units/ml] | MIC [3] [units/ml] | MIC (Klebsiella 63) [units/ml] | MIC (Proteus vulg. 1017) [units/ml] | MIC (Proteus vulg. 3400) [units/ml] | MIC (Klebsiella K 10) [units/ml] | other results |
| --- | --- | --- | --- | --- | --- | --- | --- | --- | --- | --- | --- | --- | --- | --- |
| CN(C(=O)N[C@@H](C(=O)N[C@@H]1C(=O)N2[C@@H]1SC(C)(C)[C@@H]2C(=O)O)c1ccccc1)C(=O)C1CC=CCC1 (single isomer, unassigned) [Example 65, Sodium D(-)-α-(3-(1,2,5,6)-tetrahydrobenzoyl-3-methyl-ureido)benzylpenicillin] | 50 | < 0.78 units/ml | 12.5 units/ml | 12.5 units/ml | 3.12 | < 0.78 units/ml | 1.56 units/ml | 400 | 50 | 12.5 | 3.12 | 6.25 |  | Number of surviving mice (Staph. aureus 133 [2]; 1 day): 90%; Number of surviving mice (Staph. aureus 133 [2]; 2 days): 80%; Number of surviving mice (Staph. aureus 133 [2]; 3 days): 70%; Number of surviving mice (Staph. aureus 133 [2]; 5 days): 70% |
